Test results taken from PMC8880313, “Discovery of Novel Andrographolide Derivatives as Antiviral Inhibitors against Human Enterovirus A71” (Pharmaceuticals, 2022).

Key:
[1] = system: CV-A6; experiment: Post-treatment assay, antiviral spectrum; assay type: cell-based, Coxsackievirus A6
Description: (§1) We were also interested in the antiviral potential of ZAF-47 against other Enteroviruses. As such, we performed post-treatment assay on RD cells infected with other Enteroviruses such as CV-A16, CV-A6, Echo7, CV-B5, CV-A24 and EV-D68.
(§2) To determine the inhibitory profiles of the hits, post treatment assay was performed. Seeded 24-well plates, with 1.5 × 10^5 RD cells per well, were incubated overnight at 37 °C with 5% CO2. The seeded cells were infected with EV-A71 (100 µL per well, MOI = 1) for 1 h at 37 °C with 5% CO2 and then rinsed with 1 mL of PBS twice. Different concentrations of the hits were used to treat the infected cells for 12 h at 37 °C with 5% CO2. At 12 hpi, the plates were frozen and thawed for 2 cycles (−80°C; 37 °C) before collection of supernatants to measure the viral titres via viral plaque assay.
(§3) Measurement of the viral titres from collected supernatants was derived from viral plaque assays. To do this, 24-well plates, seeded with 2.4 × 10^5 RD cells per well, were used in plaque assays for EV-A71, EV-D68, Echo7, CV-A6, CV-A16 and CV-A24 while 24-well plates, seeded with 1.2 × 10^5 Vero cells per well, were used in plaque assays for CV-B5. Seeded cells were incubated overnight at 37 °C with 5% CO2. […] Subsequent formation of viral plaques was counted manually to quantify the viral titre in PFU/mL […]

[2] = system: EV-A71 proteins, VP2 and VP0; experiment: SDS-PAGE and Western blot of EV-A71 proteins; assay type: cell-based, human enterovirus A71 (EV-A71) strain 41; settings: 6 h
Description: Since ZAF-47 possibly targets EV-A71 post-entry stages, we were interested in looking at the effect of ZAF-47 on EV-A71 protein expression. To do so, we first infected RD cells with EV-A71. We then treated the infected cells with different concentration of ZAF-47 for 6 h and collected the cell lysates for SDE-PAGE and Western blot. […] Since ZAF-47 acts on the post-entry stages and reduces EV-A71 protein expression, we hypothesized that ZAF-47 could be inhibiting RNA replication or protein translation, or possibly both, resulting in reduced viral protein expression.
Seeded 24-well plates, with 1.5 × 10^5 RD cells per well, were incubated overnight at 37 °C with 5% CO2. After which, the cells were subjected to EV-A71 infection (100 µL per well, MOI = 1) for 1 h. Reduced serum DMEM was used for mock-infection. The infected cells were then rinsed with PBS twice before treatment with 0.1% DMSO or ZAF-47 at various concentrations for 6 h at 37 °C with 5% CO2. After 6 h of drug treatment, cells were lysed with 100 µL of 1x Laemmli buffer and cell lysate was stored at −80 °C.
The cell lysate samples were subsequently boiled for 10 min at 100 °C and loaded on to a 10% acrylamide gel. SDS-PAGE was run for 2.5 h at 100V to separate the proteins. Bio Basic 10–250 kDa Protein Ladder BZ0011G (Bio Basic, Markham, Canada) was also loaded as a molecular-weight size marker. […]

[3] = system: CV-A16; experiment: Post-treatment assay, antiviral spectrum; assay type: cell-based, Coxsackievirus A16
Description: as §1
To determine the inhibitory profiles of the hits, post treatment assay was performed. Seeded 24-well plates, with 1.5 × 10^5 RD cells per well, were incubated overnight at 37 °C with 5% CO2. The seeded cells were infected with EV-A71 (100 µL per well, MOI = 1) for 1 h at 37 °C with 5% CO2 and then rinsed with 1 mL of PBS twice. […]
as §3, with “CO2. Viral supernatants were diluted from 10^−1 to 10^−7 in reduced serum DMEM before infecting the cells with a volume of 100 µL for 1 h at 37 °C with 5% CO2 (33 °C instead for EV-D68). Cells were rinsed twice with PBS before overlaying with 1 mL of reduced serum DMEM containing 0.5% agarose (Vivantis, Shah Alam, Malaysia).” for “CO2.”

[4] = system: CV-B5; experiment: Post-treatment assay, antiviral spectrum; assay type: cell-based, Coxsackievirus B5
Description: as §1, §2, §3

In the case of `CC(=O)OC[C@]1(C)C(=O)CC[C@@]2(C)C(C/C=C3/C(=O)OC[C@@H]3Oc3cccc4cccnc34)=C(C)CC[C@@H]21` [ZAF-47, (14β)-(8′-Quinolinoxy)-3-ketone-9-dehydro-17-hydro-19-acetoxy–andrographolide], the viral titre ([1]; 10 µM, CV-A6-infected RD cells) is reported as “reducing the viral titres of the above-listed enteroviruses significantly”, the IC50 ([1]; CVA6, CV-A6, Enterovirus A, drug treatment duration 96 h, RD cells) is reported as 3.16 µM and the “VP0 band intensity reduction in comparison to the control” value ([2]; 5 µM, normalized with β-actin) is reported as 35 fold. The VP2 band ([2]; different concentrations) was “not with any ZAF-47 treatment”, the viral titre ([3]; 10 µM, CV-A16-infected RD cells) was “reducing the viral titres of the above-listed enteroviruses significantly” and the IC50 ([3]; CVA16, CV-A16, Enterovirus A, drug treatment duration 16 h, RD cells) was 1380 nM. For the same compound, the viral titre ([4]; 10 µM, CV-B5-infected RD cells) was “reducing the viral titres of the above-listed enteroviruses significantly” and the IC50 ([4]; CVB5, CV-B5, Enterovirus B, drug treatment duration 12 h, RD cells) was 2460 nM.
